We go through 1 compound from patent US7256174B2, “Somatostatin and somatostatin agonists for treating insulin insensitivity and Syndrome X” (Societe de Conseils de Recherches et d'Applications …, priority 1997, dated 2007).

Data set [1] in a line: Insulin sensitivity study, oral glucose challenge after chronic treatment. In kind it is in vivo, fatty (fa/fa) Zucker rats. To be noted: 3 mg/kg s.c. twice daily, 7 days. On the procedure: Male fatty Zucker rats (Harlan-Olac, Bicester, Oxon, U.K.), which were 15-17 weeks old, were randomly divided into two groups. The animals were house in pairs in a normal 12 hour light:12 hour darkness cycle at 20±2° C. and fed a standard laboratory rat diet (Beekay rat and mouse diet, Bantin & Kingman, Hull, Humberside, U.K.) ad libitum. For the group assigned to receive drug treatment, the rats received BIM-23268C at 3 mg/kg, by subcutaneous injection, twice a day at 10:00 AM and 5:00 PM. The other group, the control group, was treated with a subcutaneous injection of 0.1 ml/100 g of saline twice a day at 10:00 AM and 5:00 PM. […] On the last day of treatment, at 5:00 PM food was removed, and the rats were fasted overnight.
A method for assessing insulin sensitivity is to administer an oral glucose challenge and monitoring the secretion of insulin and disposal of glucose from the blood stream over a 240 min period (Bergman, R. N., et al., Endocrine Review 6:45-86 (1985)). […] 20 μl blood samples were taken from tail vein (Abdel-Halim, S. M., et al., Diabetes 43:281-288 (1994)) at −60 min, −30 min, 0 min, 30 min, 60 min, 90 min, 120 min, and 240 min.
The 20 μl samples were taken into 380 μl of hemolysis reagents (Sigma, Poole, Dorset, UK) containing 50 mg/liter of digitonin (Cat# D-1407) and 100 mg/liter of Maleimide (M-3766). From this, 100 μl of the hemolysed blood sample was added to 0.9 ml of Tinder reagent (Sigma Enzymatic calorimetric assay for blood glucose, Cat# 315-100, Sigma Chemical Co. Ltd, Poole, Dorset, UK). Blood glucose was determined according to vendor's recommendation at 505 nm.
Insulin was measured by the conventional radioimmunoassay method as described (Dunmore, S., & Beloff-Chain, A., J Endocrinol. 92:15-21 (1982)). Samples were assayed in triplicates with a 1:30000 dilution of an insulin antiserum (from guinea pig)raised in the laboratory (Dunmore, S. J., et al., J. Endocrinol. 137:375-381 (1993), and using ^125I-labelled bovine insulin, iodinated by the chloramine T method (Sambrook, et al., Molecular Cloning—A Laboratory Manual, Ed. 2., Cold Spring Harbor Laboratory Press, 1989). Rat insulin (2000U/0.1 ml, Novo Nordisk Laboratories, Basingstoke, Hants, U.K.) was used as a standard in the assay. The standards and samples were diluted in assay buffer containing NaH2PO4 5.7 g/L, bovine serum albumin (Sigma A4378, Sigma Chemical Co. Ltd., Poole, Dorset, UK) 5.0 g/L, NaN3 1.0 g/L buffered to pH 7.4). Antibody-bound insulin was separated on from free insulin by the addition of a second antibody (donkey anti-guinea pig Ig) coated on cellulose, Sac-Cel (IDS, Boldon, Tyne & Wear, UK). The antibody-bound insulin precipitate was separated by centrifugation. Counts bound were measured on an LKB Rackgamma solid scintillation counter.

The nature of data set [2]: Lipidemia study, plasma glycerol and triglycerides. The class given is in vivo, Obese (fa/fa) Zucker rats. The protocol:
Obese (fa/fa) Zucker rats were treated as in example 1 above. On the last day of treatment (day 6), food was removed at 5:00 p.m., and the rats were fasted overnight. At 9:00 a.m. the next day, the animals were subjected to a glucose challenge, given as 0.8 gram/kg of glucose orally. Periodic 400 μl of blood samples were taken from the tail vein (Peterson, R. G., ILAR News, 32:16-19 (1990)) 60 min. and 30 min. before and at 30, 60, 90, and 120 min. after the administration of the glucose challenge (0.8 gram/kg orally). Aprotinin (Traysylol, Bayer UK, Hayward's Health, W. Sussex, U.K.) and heparin (Sigma Chemical Co., Poole, Dorset, U.K.) were added to the blood samples to a final concentration of 400 KIU/ml and 100 units/ml, respectively. Plasma fractions were prepared from these samples by centrifugation at 4000×G in a microfuge, for the estimation of triglycerides and glycerol. Samples were then stored at −80° C. until assayed.
Plasma glycerol and triglycerides were determined using the Sigma Enzymatic (Tinder) calorimetric assay kit (Cat #337-B, Sigma Chemical Co., Poole, Dorset, U.K.) and measuring absorbance at 540 nm in a spectrophotometer.

A short description of data set [3]: Weight loss study, chronic (6 day) treatment. As to conditions: 3 mg/kg s.c. twice a day.
Where [4] appears, read: 0.8 g/kg oral glucose challenge.
Where [5] appears, read: 3 mg/kg s.c. twice a day, six days, samples 30 and 60 minutes before oral glucose challenge.
Where [6] appears, read: throughout the 2-hour test period after oral glucose challenge.

Bridge positions count the residues as written; N and C are the ends. Square brackets hold non-standard residues; d marks the D form. Peptide text beside a SMILES is read from it.

For `C[C@@H](O)[C@@H]1NC(=O)[C@H](CCCCN)NC(=O)[C@@H](Cc2c[nH]c3ccccc23)NC(=O)[C@H](Cc2ccccc2)NC(=O)[C@H](Cc2ccccc2)NC(=O)[C@@H](N)CSSC[C@@H](C(N)=O)NC(=O)[C@H](Cc2ccccc2)NC1=O` [BIM-23268, H-Cys-Phe-Phe-D-Trp-Lys-Thr-Phe-Cys-NH2] (H-CFF[dW]KTFC-NH2; disulfide 1-8), in data set [1], the hyperinsulinemia result is “suppressing” and the insulin-sensitivity entry is “improvement”. Moreover, in data set [1] (setting [4]), the glucose tolerance entry is “did not show an impairment” and the “plasma glucose profile versus untreated group” value was “not significantly different”. In addition, in data set [1] (0.8 g/kg oral glucose challenge, vs saline control), the “glucose stimulated insulin secretion to the glucose challenge” value is listed as “significant suppression”. In addition, in data set [2] (setting [5]), the plasma glycerol result is listed as “significantly lowered” and the plasma triglycerides entry is “significantly lowered”. For the same compound, the reducing hypertriglyceridemia entry in data set [2] (6-day treatment at 3 mg/kg s.c. twice a day) is “effective”. In data set [2] (setting [6]), the plasma glycerol result is reported as “significantly lower” and the plasma triglycerides result is “significantly lower”. For the same compound, in data set [3] (six days), the “body weight gain versus control” value is reported as “lower” and the “toxic effect / appearance of treated group” value was “appeared healthy”. Besides, in data set [3] (six days (control 26.0)), the average food consumption is recorded as 25.9 g/rat/day. The “difference in amount of food consumed over the entire treatment period” value in data set [3] (six days, vs control) is reported as “no difference”. In data set [3] (after six days (control 414.09 to 418.89)), the “group mean weight after six days” value came to 413.6. Besides, the “group mean weight at the start of the trial” value in data set [3] (start of trial) amounted to 413.6.
